Results reported in PubChem BioAssay AID330 (DTP/NCI, 2004).
Several values for one entry are separate records, joined by “and”; a condition that tells them apart may be missing. Equal values may be shown once. Toxic doses and inconclusive results are not listed. The calls were made as follows: active = survival T/C of 150% or more; inactive = T/C below 125% in these data.

System: P388 leukemia ip, CD2F1 mice, survival T/C
Assay: NCI In Vivo Anticancer Drug Screen. Data for tumor model P388 Leukemia (intraperitoneal) in CD2F1 (CDF1) mice
Conditions: endpoint: median survival time, higher = longer survival
Procedure, shortened: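 Mice carrying the transplanted tumor received test compound or vehicle. Survival was recorded in each group, and the value is the treated-group measurement divided by that of the vehicle-treated control group.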

[1] = dose: 50.0 mg/kg/injection, schedule: Q01DX005 (ip), vehicle: saline with Tween-80
[2] = dose: 100.0 mg/kg/injection, schedule: Q01DX005 (ip), vehicle: saline with Tween-80
[3] = dose: 200.0 mg/kg/injection, schedule: Q01DX005 (ip), vehicle: saline with Tween-80
[4] = dose: 12.5 mg/kg/injection, schedule: Q01DX009 (ip), vehicle: saline with Tween-80
[5] = dose: 12.5 mg/kg/injection, schedule: Q01DX009 (ip), vehicle: saline
[6] = dose: 50.0 mg/kg/injection, schedule: Q01DX009 (ip), vehicle: saline with Tween-80
[7] = dose: 100.0 mg/kg/injection, schedule: Q01DX009 (ip), vehicle: saline with Tween-80
[8] = dose: 200.0 mg/kg/injection, schedule: Q01DX009 (ip), vehicle: saline with Tween-80
[9] = dose: 25.0 mg/kg/injection, schedule: Q01DX009 (ip), vehicle: saline with Tween-80
[10] = dose: 50.0 mg/kg/injection, schedule: Q01DX009 (ip), vehicle: saline
[11] = dose: 15.0 mg/kg/injection, schedule: Q01DX005 (ip), vehicle: saline with Tween-80
[12] = dose: 30.0 mg/kg/injection, schedule: Q01DX005 (ip), vehicle: saline with Tween-80
[13] = dose: 60.0 mg/kg/injection, schedule: Q01DX005 (ip), vehicle: saline with Tween-80
[14] = dose: 50.0 mg/kg/injection, schedule: Q01DX005 (ip), vehicle: Klucel (hydroxypropylcellulose) (HPC)
[15] = dose: 100.0 mg/kg/injection, schedule: Q01DX005 (ip), vehicle: Klucel (hydroxypropylcellulose) (HPC)
[16] = dose: 200.0 mg/kg/injection, schedule: Q01DX005 (ip), vehicle: Klucel (hydroxypropylcellulose) (HPC)
[17] = dose: 50.0 mg/kg/injection, schedule: Q01DX009 (ip), vehicle: Klucel (hydroxypropylcellulose) (HPC)
[18] = dose: 100.0 mg/kg/injection, schedule: Q01DX009 (ip), vehicle: Klucel (hydroxypropylcellulose) (HPC)
[19] = dose: 200.0 mg/kg/injection, schedule: Q01DX009 (ip), vehicle: Klucel (hydroxypropylcellulose) (HPC)

Measured: T/C

O=C(CCCl)Oc1ccc(Br)cc1
inactive: dose: 100.0 mg/kg/injection, schedule: Q01DX009 (ip), vehicle: saline sonified 111 % of control | dose: 200.0 mg/kg/injection, schedule: Q01DX009 (ip), vehicle: saline sonified 100 % of control | dose: 400.0 mg/kg/injection, schedule: Q01DX009 (ip), vehicle: saline sonified 94 % of control

COc1ccc(C2=CC3CCC(C2)N3C)cc1 (stereo unspecified)
inactive: dose: 6.25 mg/kg/injection, schedule: Q01DX005 (ip), vehicle: Klucel (hydroxypropylcellulose) (HPC) 96 % of control | dose: 12.5 mg/kg/injection, schedule: Q01DX005 (ip), vehicle: Klucel (hydroxypropylcellulose) (HPC) 110 % of control | dose: 12.5 mg/kg/injection, schedule: Q01DX005 (ip), vehicle: saline 102 % of control | dose: 25.0 mg/kg/injection, schedule: Q01DX005 (ip), vehicle: Klucel (hydroxypropylcellulose) (HPC) 110 % of control and 113 % of control | dose: 25.0 mg/kg/injection, schedule: Q01DX005 (ip), vehicle: saline 98 % of control | dose: 50.0 mg/kg/injection, schedule: Q01DX005 (ip), vehicle: saline 94 % of control

c1ccc2c(c1)oc1c3c(ccc12)NCCC3
inactive: [1] 104 % of control | [2] 99 % of control | [3] 104 % of control

O=C1NC(c2ccccc2)N=C2Oc3ccccc3C=C12 (stereo unspecified)
inactive: dose: 3.12 mg/kg/injection, schedule: Q01DX009 (ip), vehicle: saline 97 % of control | dose: 6.25 mg/kg/injection, schedule: Q01DX009 (ip), vehicle: saline 97 % of control | [4] 115 % of control | [5] 106 % of control

Cc1cn[nH]c(=O)c1
inactive: [6] 99 % of control | [7] 99 % of control | [8] 99 % of control

C(=C\c1cccnc1)/c1ccncc1
inactive: [9] 95 % of control | [6] 104 % of control | [7] 109 % of control

Cc1cc(C)n(-c2ccncc2[N+](=O)[O-])n1
inactive: [10] 101 % of control | dose: 100.0 mg/kg/injection, schedule: Q01DX009 (ip), vehicle: saline 97 % of control | dose: 200.0 mg/kg/injection, schedule: Q01DX009 (ip), vehicle: saline 105 % of control

CCc1nc(N)nc(N)c1-c1ccc2c(c1)nnn2C1CCCCC1
inactive: [1] 100 % of control | [2] 100 % of control | [3] 87 % of control

CC1(O)c2ccccc2-c2ccccc2C1(C)O (stereo unspecified)
inactive: [1] 97 % of control | [2] 100 % of control | [3] 90 % of control

O=C(c1ccccc1)c1c(CO[N+](=O)[O-])n([O-])c2ccccc2[n+]1=O
inactive: [11] 105 % of control | [12] 109 % of control | [13] 104 % of control and 109 % of control

CCOC(=O)CNC(=O)C(CS)NC(=O)C(CSC(c1ccccc1)c1ccccc1)NC(=O)OCc1ccccc1 (stereo unspecified)
inactive: [14] 97 % of control | [15] 99 % of control | [16] 103 % of control

S=C(Nc1ccc(Br)cc1)SCc1ccc2c(c1)OCO2
inactive: dose: 50.0 mg/kg/injection, schedule: Q01DX009 (ip), vehicle: suspension in saline 109 % of control | dose: 100.0 mg/kg/injection, schedule: Q01DX009 (ip), vehicle: suspension in saline 119 % of control | dose: 200.0 mg/kg/injection, schedule: Q01DX009 (ip), vehicle: suspension in saline 93 % of control

c1ccc(NSc2ccccc2)cc1
inactive: dose: 25.0 mg/kg/injection, schedule: Q01DX009 (ip), vehicle: Klucel (hydroxypropylcellulose) (HPC) 119 % of control | [9] 100 % of control | [17] 103 % of control and 119 % of control | [6] 98 % of control | [18] 101 % of control and 121 % of control | [7] 109 % of control | [19] 106 % of control | [8] 100 % of control

FC(F)(F)C(F)(F)c1nc2nc(Cl)c(Cl)nc2[nH]1
inactive: dose: 50.0 mg/kg/injection, schedule: Q04DX003 (ip), vehicle: other 100 % of control | dose: 100.0 mg/kg/injection, schedule: Q04DX003 (ip), vehicle: other 118 % of control | dose: 200.0 mg/kg/injection, schedule: Q04DX003 (ip), vehicle: other 113 % of control

C[N+](C)(CCCCOc1c(Br)cc(Br)cc1Br)Cc1ccc([N+](=O)[O-])o1
inactive: dose: 12.5 mg/kg/injection, schedule: Q04DX003 (ip), vehicle: Klucel (hydroxypropylcellulose) (HPC) 100 % of control | dose: 25.0 mg/kg/injection, schedule: Q04DX003 (ip), vehicle: Klucel (hydroxypropylcellulose) (HPC) 101 % of control | dose: 50.0 mg/kg/injection, schedule: Q04DX003 (ip), vehicle: Klucel (hydroxypropylcellulose) (HPC) 100 % of control

COC(=O)C1=C(C)NC(C)=C(C(=O)OCCCN2CCC(c3ccccc3)(c3ccccc3)CC2)C1c1cccc([N+](=O)[O-])c1 (stereo unspecified)
inactive: [11] 100 % of control | [12] 103 % of control | [13] 99 % of control

c1ccc(ON=C2c3ccccc3-c3ccccc32)cc1
inactive: dose: 75.0 mg/kg/injection, schedule: Q04DX003 (ip), vehicle: saline 113 % of control | dose: 125.0 mg/kg/injection, schedule: Q04DX003 (ip), vehicle: saline 109 % of control | dose: 250.0 mg/kg/injection, schedule: Q04DX003 (ip), vehicle: saline 104 % of control

O=[N+]([O-])c1ccc(NS(=O)(=O)c2cccs2)c([N+](=O)[O-])c1
inactive: [4] 105 % of control | [9] 103 % of control | [6] 108 % of control

CN1CC2Cc3ccc(O)cc3C(C)(C2)C1 (stereo unspecified)
inactive: [5] 98 % of control | dose: 25.0 mg/kg/injection, schedule: Q01DX009 (ip), vehicle: saline 96 % of control | [6] 87 % of control | [10] 98 % of control

CCOC(=O)Cc1ccc(-c2cn3c(n2)sc2ccccc23)cc1
inactive: [17] 112 % of control | [18] 103 % of control | [19] 100 % of control

N#C/C(=C\c1c(Cl)cccc1Cl)c1nc2ccccc2[nH]1
inactive: [17] 115 % of control | [18] 103 % of control | [19] 112 % of control

Nc1nc(N)nc(N(CCO)CCO)n1
inactive: [14] 111 % of control | [15] 102 % of control | [16] 106 % of control
